Results published in US12318361B2, “Methods for treating cardiovascular diseases” (Olatec Therapeutics LLC, priority 2017, dated 2025).

How the values were obtained:
caspase-1 = test: Western blot for caspase-1 (p45 and p10) in J774A.1 cells after LPS/ATP stimulation; assay type: cell-based, murine
Protocol: J774A.1 murine macrophages cells were stimulated with 1 μg/ml lipopolysaccharide (LPS) for 4 hours and either nigericin (NIG, 10 μM) or ATP (5 mM) was added for 1 hour. OLT1177™ was added to the cells either 30 minutes following LPS stimulation or at the same time as ATP.
A subunit of activated caspase-1 (p10) was reduced in J774A.1 cells in the presence of dapansutrile (OLT).

[1] = test system: rats, thrombus formation in abdominal aorta; test: Thrombus formation in anesthetized rats (abdominal aorta stenosis and compression injury); assay type: in vivo, rats (CD-1); settings: intravenous via tail vein, 5 min before injury; written in present tense
Protocol: To evaluate the effect of dapansutrile on thrombus formation in vivo, the following experimental protocol is performed.
Rats (CD-1; male; approximately 350 grams; Charles River, Raleigh, NC), are anesthetized with sodium pentobarbital (70 mg/kg i.p.). The abdomens are shaved and a 22 gauge intravenous catheter is inserted into a lateral tail vein. A midline incision is made and the intestines are wrapped in saline-soaked gauze and positioned so the abdominal aorta is accessible. […] All branches from the aorta in this section are ligated with 4-0 silk suture. A 2.5 mm diameter flow probe connected to a Transonic flow meter is placed on the artery and a baseline (pre-stenosis) flow is recorded. Two clips are placed around the artery decreasing the vessel diameter by approximately 80%. A second baseline flow measurement is taken (post-stenosis) and the hyperemic response is tested. Animals are then treated with either Rho kinase inhibitor compound or saline intravenously via tail vein catheter. Thrombosis is induced five minutes after treatment by repeated external compressions of the vessel with hemostatic forceps. Two minutes post-injury, the vessel compressions are repeated and a 10 minute period of flow monitoring is started. Animals are monitored continuously for a minimum of the first ten minutes post-injury. […]

[2] = test system: IL-1β release from human monocytes-derived macrophages; test: Suppression of IL-1β release from human monocytes-derived macrophages (LPS priming, nigericin release, ELISA); assay type: cell-based
Protocol: Peripheral blood mononuclear cells (PBMCs) were isolated from blood of 6 healthy human donors and differenciates in macrophages using GM-CSF (5 ng/ml) for 5 days. They were stimulated with 1 μg/mL with lipopolysaccharide (LPS, priming phase) at time zero. At 30 minutes, they were incubated with different concentrations of dapansutrile (OLT1177™) from 0.001-100 μM. At 4 hours, 10 μM of nigericin (NIG, release phase) was added. At the end of an 5 hour incubation period, the supernatant was harvested and assayed for IL-1β or IL-18 using respective ELISA kits following manafacturer's protocols.

[3] = test system: dogs, occlusive coronary thrombus formation; test: Thrombus formation in anesthetized dogs (anodal current to left circumflex coronary artery); assay type: in vivo; settings: intravenous, about 30 min before anodal current; written in present tense
Protocol: To evaluate the effect of compound of Formula I or II on dynamic thrombus formation in vivo, the following experimental protocol, similar to the method of J. L. Romson et al. (Thromb. Res. 17:841-853, 1980), is performed.
Surgical Preparation and Instrumentation. Briefly, purpose-bred dogs are anesthetized, intubated and ventilated with room air. The heart is exposed by a left thoracotomy in the fifth intercostal space and suspended in a pericardial cradle. A 2-3 cm segment of the left circumflex coronary artery (LCCA) is isolated by blunt dissection. The artery is instrumented from proximal to distal with a flow probe, a stimulation electrode, and a Goldblatt clamp. The flow probe monitors the mean and phasic LCCA blood flow velocities. […]
Experimental Protocol: Dogs are randomized to one of four treatment protocols in which the control group receives saline intravenously and the three drug-treated groups are administered Rho kinase inhibitor compound intravenously. […] The number and frequency of cyclic flow variations (CFV) that precede formation of an occlusive thrombus are recorded. […]

`CS(=O)(=O)CCC#N` [OLT1177™, 3-methanesulfonyl-propionitrile] was tested, and the “subunit of activated caspase-1 (p10), Western blot” value (caspase-1) was “reduced”, the “histological evidence of thrombosis” value [1] was “decrease” and the “vessel injury-induced flow reduction” value [1] was “decrease”. For the same compound, the “concentration of maximum suppression effect on IL-1β release” value ([2]; HMDM, 1 μg/mL LPS then 10 μM nigericin, 0.001-100 μM tested) was 1 µM, the “release of IL-1β from stimulated monocytes-derived macrophages” value ([2]; LPS/nigericin, compared to control) was “suppresses” and the “number and frequency of cyclic flow variations that precede formation of an occlusive thrombus” value [3] was “significantly increases”.
